“And” between values parts separate entries of the source, which are not always exact repeats. Identical values can stand only once.
| melting point | Structure (SMILES) |
| --- | --- |
| 60.5 °C | CCOC(=O)c1ccc(-n2c(C)ccc2C)cc1 [OSM-S-40] |
| 112 °C | CCSC(SCC)C(OC(C)=O)C(OC(C)=O)C(OC(C)=O)C(COC(C)=O)OC(C)=O (stereo unspecified) |
| 182 °C | CC12CCC(C(O)=C/C1=N\Nc1ccccc1)C2(C)C (stereo unspecified) |
| 32.5 °C | O[C@@H]1CCC[C@@H]1O [(1R,2S)-Cyclopentane-1,2-diol] |
| 93 °C | CCc1ccc(OCC(=O)O)cc1 [4-ethylphenoxyacetic acid] |
| 150 °C | O=[N+]([O-])c1ccc(N2CCOCC2)cc1 [4-(4-nitrophenyl)morpholine] |
| 2 °C | CCOC(=O)C#CC(=O)OCC [diethyl acetylenedicarboxylate] |
| 243 °C | O=C(O)C1=Cc2cc(Cl)ccc2OC1 [6-chloro-2h-chromene-3-carboxylic acid] |
| 222 °C | CC(=O)OCC(=O)[C@@]1(O)CC[C@H]2[C@@H]3CCC4=CC(=O)CC[C@]4(C)[C@H]3C(=O)C[C@@]21C [cortisone acetate] |
| -49 °C | CCCCN [Butan-1-amine] |
| 168 °C | CC(=O)N[C@@H](Cc1ccccc1)C(=O)O [N-acetyl-l-phenylalanine] |
| 110 °C | CC(=O)N[C@@H](CS)C(=O)O [N-acetyl-l-cysteine] |
| 117 °C | CCOC(=O)c1ccc(O)cc1 [ethyl 4-hydroxybenzoate] |
| 17 °C | O=C(O)C1CC=CCC1 (stereo unspecified) [3-cyclohexene-1-carboxylic acid] |
| 88 °C | COc1cc(Cl)c(Cl)c(Cl)c1Cl [1-methoxy-2,3,4,5-tetrachlorobenzene] |
| 110 °C | C1CNCCN1 [piperazine, anhydrous] |
| 188 °C | COc1ccc(C(=O)O)cc1[N+](=O)[O-] [4-methoxy-3-nitrobenzoic acid] |
| 177 °C | C[C@]12CC[C@@H]3c4ccc(O)cc4CC[C@H]3[C@@H]1CC[C@@H]2O [beta-estradiol] |
| 200 °C | Cc1ccc(B(O)O)c(Cl)c1 [2-chloro-4-methylbenzeneboronic acid] |
| 149 °C | CSc1[nH]nc(N)c1C#N [3-amino-5-methylthio-1h-pyrazole-4-carbonitrile] |
| 173 °C | CC(=O)Nc1ccc(-c2ccc3nn(-c4ccccc4)nc3c2)cc1 [N-[4-(2-phenyl-2H-benzotriazol-5-yl)phenyl]acetamide] |
| 194 °C | CC(NC(=O)COCCN1C(=O)c2ccccc2C1=O)C(=O)NC(CCC(=O)O)C(=O)O (stereo unspecified) |
| 155 °C | Nc1c(C(=O)O)cccc1C(F)(F)F [2-amino-3-(trifluoromethyl)benzoic acid] |
| -21 °C | C[C@H]1CCCC[C@@H]1O (relative stereo) [trans-2-methylcyclohexanol] |
| -114 °C | [2H]OC([2H])([2H])C([2H])([2H])[2H] [(~2~H_5_)Ethan(~2~H)ol] |

| melting point | Structure (SMILES) |
| --- | --- |
| 162 °C | O=c1nc[nH]c2c1ncn2[C@H]1CC[C@@H](CO)O1 [Didanosine] |
| 60 °C | O=C(O)CCCC[C@@H]1CCSS1 [5-[(3R)-1,2-Dithiolan-3-yl]pentanoic acid] |
| 94 °C (2×) and 93 °C | CC(C(=O)O)c1cccc(C(=O)c2ccccc2)c1 (stereo unspecified) [ketoprofen] |
| 134 °C | O=C(O)c1ccccc1Nc1cccc(C(F)(F)F)c1 [flufenamic acid] |
| -100 °C | CCCCCOC(C)=O [N-pentyl acetate] |
| 18 °C | N#CCCCCCCCCCCC#N [1,10-decanedicarbonitrile] |
| 46 °C | Nc1ccc(F)c(Cl)c1 [3-chloro-4-fluoroaniline] |
| 70 °C | O=C(O)C1(C(F)(F)F)CCCCC1 [1-(trifluoromethyl)cyclohexanecarboxylic acid] |
| 101 °C | O=C(O)Cc1c(F)cccc1F [2,6-difluorophenylacetic acid] |
| -5 °C | CC(C(=O)O)c1ccccc1 (stereo unspecified) [2-phenylpropionic acid] |
| -140 °C | C=CCCCC [1-hexene] |
| 98 °C | CCOC(=O)c1cnn(-c2ccccc2)c1 [ethyl 1-phenyl-1h-pyrazole-4-carboxylate] |
| -106 °C | CC(C)=C/C(C)(C)C [2,4,4-trimethyl-2-pentene] |
| 197 °C | O=C1Nc2c(Br)cccc2C1=O [7-bromoisatin] |
| 85 °C | CC1c2ccccc2C(=O)C1c1ccccc1 (stereo unspecified) [3-methyl-2-phenyl-2,3-dihydro-1H-inden-1-one] |
| 122 °C | N#CCc1ccccc1O [o-hydroxy_phenylacetonitrile] |
| 204 °C | COc1cc(NS(=O)(=O)c2ccc(N)cc2)nc(OC)n1 [sulfadimethoxine] |
| -100 °C | CCCc1ccccc1 [N-propylbenzene] |
| -78 °C | CC(=O)OCCC(C)C [isoamyl_acetate] |
| 246 °C | OB(O)c1ccc(-c2ccccc2)c(F)c1 [2-fluorobiphenyl-4-boronic acid] |
| 89 °C | CCOC(=O)c1ccc(N)cc1 [ethyl-4-aminobenzoate (benzocaine)] |
| 46 °C | O=Cc1ccccc1[N+](=O)[O-] [o-nitrobenzaldehyde] |
| 108 °C | O=Cc1ccc([N+](=O)[O-])cc1 [p-nitrobenzaldehyde] |
| 74 °C | CC(C)(C)OC(=O)N[C@@H](Cc1cccs1)C(=O)O [N-boc-3-(2-thienyl)-L-alanine] |
| 252 °C and 256 °C and 254 °C | Nc1ccc(S(=O)(=O)Nc2ncccn2)cc1 [sulfadiazine] |

| melting point | Structure (SMILES) |
| --- | --- |
| 58 °C | O=C=Nc1ccc([N+](=O)[O-])cc1 [4-nitrophenyl isocyanate] |
| 79 °C | O=C(Oc1ccccc1)Oc1ccccc1 [diphenyl carbonate] |
| 119 °C | CC(=O)Nc1ccccc1C#Cc1ccccc1 [N-[2-(phenylethynyl)phenyl]acetamide] |
| 107 °C | Oc1ccc(Cl)c(O)c1 [4-chlororesorcinol] |
| 103 °C | CCCc1c(O)cccc1O [2-n-propylresorcinol] |
| 76 °C | Nc1ccc(-c2cccs2)cc1 [4-(2-thienyl)aniline] |
| 45 °C | Cc1cc(N)n[nH]1 [3-amino-5-methyl-1h-pyrazole] |
| 146 °C | COc1ccc(Br)c(OC)c1C(=O)O [3-bromo-2,6-dimethoxybenzoic acid] |
| 238 °C | COc1ccc(B(O)O)cc1F [3-fluoro-4-methoxybenzeneboronic acid] |
| 220 °C | Cc1ccc(B(O)O)cc1C [3,4-dimethylbenzeneboronic acid] |
| 48 °C | CCN(CC)CCSC(=O)N(c1ccccc1)c1ccccc1 [phencarbamide] |
| 170 °C | C=C[C@H]1C[N@@]2CC[C@H]1C[C@@H]2[C@@H](O)c1ccnc2ccc(OC)cc12 [quinidine] |
| 31 °C | C/C=C/C=C/CO [trans,trans-2,4-hexadien-1-ol] |
| 31 °C | CCCCCCCCCC(=O)O [decanoic acid] |
| 254 °C | Cc1cnc(s1)NC(=O)C\3=C(/O)c2ccccc2S(=O)(=O)N/3C [meloxicam] |
| -36 °C | CC(C)C(C)(C)C(C)(C)C [2,2,3,3,4-pentamethylpentane] |
| 106 °C | COc1cc(N)c(C(C)=O)cc1OC [2'-amino-4',5'-dimethoxyacetophenone] |
| 31 °C | O=[N+]([O-])c1ccc(Cl)cc1Cl [2,4-dichloronitrobenzene] |
| -22 °C | Fc1ccc(Cl)cc1 [1-chloro-4-fluorobenzene] |
| 125 °C | CC(C)(C)NCC(O)COc1cccc2c1C[C@H](O)[C@H](O)C2 (stereo partly specified) [nadolol] |
| 31 °C | CCCCCCCC/C=CCCCCCCCCCCCC(=O)O [erucic acid] |
| 207 °C | COc1cc(C(=O)O)cc(OC)c1O [syringic acid] |
| 132 °C | O=C1OC(=O)c2ccccc21 [phthalic anhydride] |
| 49 °C | CSCC[C@@H](NC(=O)OC(C)(C)C)C(=O)O [N-boc-D-methionine] |

| Structure (SMILES) | melting point |
| --- | --- |
| COc1ccc(C=O)cc1OC [3,4-dimethoxybenzaldehyde] | 44 °C |
| Clc1c(Cl)c(Cl)c(Cl)c(Cl)c1Cl [Hexachlorobenzene] | 228 °C |
| Clc1c(Cl)c(Cl)c(Cl)c(Cl)c1Cl [hexachlorobenzene] | 231 °C |
| C1=CC2C(C1)[C@@H]1C=C[C@H]2C1 (stereo partly specified) [Dicyclopentadiene] | 32.5 °C |
| O=C1C(=O)c2ccccc2-c2ccccc21 [9,10-phenanthrenequinone] | 210 °C |
| OC[C@@H](O)[C@H]1O[C@@H]2O[C@H](C(Cl)(Cl)Cl)O[C@@H]2[C@H]1O [1,2-O-[(1R)-2,2,2-Trichloroethylidene]-alpha-D-glucofuranose] | 187 °C |
| Clc1ccc(Cl)cc1 [p-dichlorobenzene] | 53 °C |
| O=Cc1ccco1 [2-Furaldehyde] | -36 °C |
| Cc1ccc(N)c(C)c1 [2,4-dimethylaniline] | -15 °C |
| C=C(Br)CC1(C(C)C)C(=O)NC(=O)NC1=O [propallylonal] | 177 °C |
| C[C@]12CC[C@H]3[C@@H](CCC4=CC(=O)CC[C@@]43C)[C@@H]1CC[C@@H]2O [Testosterone] | 155 °C |
| CCCC(C)(COC(N)=O)COC(N)=O [meprobamate] | 104 °C |
| O=[N+]([O-])c1ccc(Cl)cc1 [1-chloro-4-nitrobenzene] | 84 °C |
| O=[N+]([O-])c1ccc(F)c([N+](=O)[O-])c1 [1-Fluoro-2,4-dinitrobenzene] | 27 °C |
| O=c1[nH]c2ccccc2n1C1CCN(CCCC(c2ccc(F)cc2)c2ccc(F)cc2)CC1 [pimozide] | 216 °C |
| Clc1cc(Cl)c(-c2ccccc2)cc1Cl [2,4,5-Trichlorobiphenyl] | 78 °C |
| N#Cc1cc(I)c(O)c(I)c1 [3,5-diiodo-4-hydroxybenzonitrile] | 204 °C |
| C=CCC1([C@H](C)CCC)C(=O)NC(=O)NC1=O [Secobarbital] | 100 °C |
| O=C(O)C(Cl)(Cl)Cl [trichloroacetic acid] | 57.5 °C |
| CC(Oc1ccc(Cl)cc1Cl)C(=O)O (stereo unspecified) [dichlorprop] | 118 °C |
| CCOC(O)C(Cl)(Cl)Cl (stereo unspecified) [2,2,2-trichloro-1-ethoxyethanol] | 50 °C |
| CCCCCl [1-chlorobutane] | -123 °C |

Reference: the Bradley open melting point set (2014)
